Source: PubChem BioAssay (NCI)
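Abbreviation: GI50, concentration required for 50% inhibition of growth. TGI denotes the concentration required for complete inhibition of growth.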

Tests used:
Assay in all cases: NCI-60 cell line screen, 384-well format
[1] = tested on: SN12C renal
[2] = tested on: OVCAR-3 ovarian
[3] = tested on: NCI-H522 lung
[4] = tested on: MALME-3M melanoma
[5] = tested on: TK-10 renal
[6] = tested on: MDA-MB-468 breast
[7] = tested on: HOP-92 NSCLC
[8] = tested on: UACC-62 melanoma
[9] = tested on: NCI-H460 NSCLC
[10] = tested on: MOLT-4 leukemia
[11] = tested on: SF-539 CNS
[12] = tested on: KM12 colon
[13] = tested on: SNB-19 CNS
[14] = tested on: A498 renal
[15] = tested on: UACC-257 melanoma
[16] = tested on: T-47D breast
[17] = tested on: OVCAR-4 ovarian
[18] = tested on: HOP-62 NSCLC
[19] = tested on: K-562 leukemia
[20] = tested on: SK-MEL-5 melanoma
[21] = tested on: MDA-MB-231 breast
[22] = tested on: HT29 colon
[23] = tested on: SW-620 colon
[24] = tested on: NCI-H226 lung
[25] = tested on: U251 glioblastoma
[26] = tested on: CAKI-1 renal
[27] = tested on: MDA-MB-435 melanoma

## Nc1nn2cc(F)cnc2c1C(=O)Nc1cncc(F)c1N1CCC(C(=O)N2CCN(C3COC3)CC2)CC1
[1]
  GI50: 376 nM
  TGI: 2930 nM
[2]
  GI50: 215 nM
  TGI: 1420 nM
[3]
  GI50: 183 nM
  TGI: 735 nM
[4]
  GI50: 18.8 nM
  TGI: 53.2 nM
[5]
  GI50: 29.9 nM
  TGI: 231 nM
[6]
  GI50: 29.4 nM
  TGI: 324 nM
[7]
  GI50: 47.9 nM
  TGI: 539 nM
[8]
  GI50: 223 nM
  TGI: 1570 nM
[9]
  GI50: 20.8 nM
  TGI: 156 nM
[10]
  TGI: 11.8 nM
[11]
  GI50: 33 nM
  TGI: 149 nM
[12]
  GI50: 32.7 nM
  TGI: 727 nM
[13]
  GI50: 407 nM
  TGI: 4350 nM
[14]
  GI50: 34.5 nM
  TGI: 207 nM
[15]
  GI50: 332 nM
  TGI: 1890 nM
[16]
  GI50: 4730 nM
  TGI: > 100000 nM
[17]
  GI50: 62.5 nM
  TGI: 2440 nM
[18]
  GI50: 21.4 nM
  TGI: 218 nM
[19]
  GI50: 48.2 nM
  TGI: 179 nM
[20]
  GI50: 98.6 nM
  TGI: 334 nM
[21]
  GI50: 789 nM
  TGI: > 100000 nM
[22]
  GI50: 302 nM
  TGI: > 100000 nM
[23]
  GI50: 227 nM
  TGI: > 100000 nM
[24]
  GI50: 327 nM
  TGI: 2240 nM
[25]
  GI50: 141 nM
  TGI: 1170 nM
[26]
  GI50: 185 nM
  TGI: 1470 nM
[27]
  GI50: 35.7 nM
